Several values for one entry are separate records, joined by “and”; a condition that tells them apart may be missing. Identical values can stand only once. Counter-ions that a name gives are not always drawn. Like-named read-outs stand apart in the source and are kept apart here. Blank lines part the entries; values can stand above or below the compound they belong to.
How the values were obtained:
[1] = 12-membered ring
human Factor XIa = human Factor XIa (Homo sapiens (Human), UniProt P03951); experiment: Factor XIa enzyme inhibition assay (chromogenic substrate S-2366); type: biochemical; conditions: purified human Factor XIa 25-200 pM, substrate S-2366, 50 mM HEPES pH 7.4
Chain of human Factor XIa (P03951 388-625): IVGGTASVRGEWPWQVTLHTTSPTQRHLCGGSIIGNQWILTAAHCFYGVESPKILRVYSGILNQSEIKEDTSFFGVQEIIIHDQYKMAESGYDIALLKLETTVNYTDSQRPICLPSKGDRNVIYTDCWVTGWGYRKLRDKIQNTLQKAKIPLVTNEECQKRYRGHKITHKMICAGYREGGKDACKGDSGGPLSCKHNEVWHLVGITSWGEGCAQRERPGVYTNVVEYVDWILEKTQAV
Chain of human Factor XIa (P03951 19-387 partner): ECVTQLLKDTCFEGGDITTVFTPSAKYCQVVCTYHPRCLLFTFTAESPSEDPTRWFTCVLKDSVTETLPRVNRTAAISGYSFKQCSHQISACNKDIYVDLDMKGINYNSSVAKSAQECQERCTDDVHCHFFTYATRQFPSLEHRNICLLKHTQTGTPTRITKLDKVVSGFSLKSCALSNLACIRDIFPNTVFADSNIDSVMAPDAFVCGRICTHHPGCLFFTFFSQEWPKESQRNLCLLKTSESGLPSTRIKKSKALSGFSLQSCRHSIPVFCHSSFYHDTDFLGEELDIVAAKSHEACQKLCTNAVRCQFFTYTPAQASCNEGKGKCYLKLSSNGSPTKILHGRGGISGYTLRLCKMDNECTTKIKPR

[2] = from C=CC[C@H](NC(=O)OC(C)(C)C)c1cc(-c2ccc(NC(=O)OC)cc2NC(=O)C(C=C)CC)ccn1, rcm bond, Grubbs II, microwave, DCE, 120.0 °C, 0.42 h

SMILES: CCOC(=O)C1C/C=C/C[C@H](NC(=O)OC(C)(C)C)c2cc(ccn2)-c2ccc(NC(=O)OC)cc2N1 (stereo partly drawn)
ring closure, isolated yield ([1]; from C=CCC(Nc1cc(NC(=O)OC)ccc1-c1ccnc([C@H](CC=C)NC(=O)OC(C)(C)C)c1)C(=O)OCC, rcm bond, Grubbs (as described before)): 47%

SMILES: COC(=O)Nc1ccc(-c2ccnc([C@H](CCCO)NC(=O)OC(C)(C)C)c2)c(N)c1
ring closure, isolated yield ([1]; the molecule shown is the open-chain precursor, other bond, phosgene, then TEA/DMAP, DCM, 3.3 mM, 2 steps): 57%

SMILES: COC(=O)Nc1ccc2c(c1)NC(=O)C(C)/C=C/C[C@H](NC(=O)OC(C)(C)C)c1cc-2nnc1Cl (stereo partly drawn)
ring closure, isolated yield ([1]; from C=CC[C@H](NC(=O)OC(C)(C)C)c1cc(-c2ccc(NC(=O)OC)cc2NC(=O)C(C)C=C)nnc1Cl, rcm bond, Grubbs II (0.4 eq), 1,2-dichloroethane, 4.7 mM, 120.0 °C, 0.5 h): 22%

SMILES: COC(=O)Nc1ccc2c(c1)NC(=O)C(C)C=CC[C@H](NC(=O)OC(C)(C)C)c1cc-2cc(=O)[nH]1 (stereo partly drawn)
ring closure, yield after HPLC (from C=CC[C@H](NC(=O)OC(C)(C)C)c1cc(-c2ccc(NC(=O)OC)cc2NC(=O)C(C)C=C)cc(=O)[nH]1, rcm bond, 12-membered ring, Grubbs II (0.4 eq), microwave, DCE, 18.0 mM, 120.0 °C, 0.5 h): 19% and 35%

SMILES: COC(=O)Nc1ccc2c(c1)NC(=O)C/C=C/C(C)[C@H](NC(=O)OC(C)(C)C)c1cc-2ccn1 (stereo partly drawn)
ring closure, yield after HPLC (from C=CCC(=O)Nc1cc(NC(=O)OC)ccc1-c1ccnc([C@@H](NC(=O)OC(C)(C)C)C(C)C=C)c1, rcm bond, 12-membered ring, Grubbs II, toluene, 9.0 mM, 160.0 °C, 0.33 h): 12%

SMILES: COC(=O)Nc1ccc2c(c1)NC(=O)C/C=C/C[C@H](NC(=O)OC(C)(C)C)c1cc-2ccn1
ring closure, isolated yield ([1]; from C=CCC(=O)Nc1cc(NC(=O)OC)ccc1-c1ccnc([C@H](CC=C)NC(=O)OC(C)(C)C)c1, rcm bond, Grubbs II (0.4 eq)/pTsOH, DCM, 4.0 mM, 40.0 °C, 3.0 h): 26%

SMILES: COC(=O)Nc1ccc2c(c1)NC(=O)CC/C=C/C[C@H](NC(=O)OC(C)(C)C)c1cc-2cc(=O)[nH]1
ring closure, yield after HPLC (from C=CCCC(=O)Nc1cc(NC(=O)OC)ccc1-c1cc([C@H](CC=C)NC(=O)OC(C)(C)C)[nH]c(=O)c1, rcm bond, 13-membered ring, Grubbs II, microwave, DCE, 18.9 mM, 120.0 °C, 0.5 h): 26%

SMILES: COC(=O)Nc1ccc2c(c1)NC(=O)CC/C=C/C[C@H](NC(=O)OC(C)(C)C)c1nc-2cn1COCC[Si](C)(C)C
ring closure, yield after HPLC (from C=CCCC(=O)Nc1cc(NC(=O)OC)ccc1-c1cn(COCC[Si](C)(C)C)c([C@H](CC=CN)C(=O)OC(C)(C)C)n1, rcm bond, 13-membered ring): 42%

SMILES: COC(=O)Nc1ccc2c(c1)NC(=O)CCOC[C@H](NC(=O)OC(C)(C)C)c1nc-2cn1COCC[Si](C)(C)C
ring closure, yield after HPLC (from COC(=O)Nc1ccc(-c2cn(COCC[Si](C)(C)C)c([C@H](COCCC(=O)O)NC(=O)OC(C)(C)C)n2)c(N)c1, amide bond, 12-membered ring, BOP/DMAP/DIEA, DMF, 1.0 mM, 25.0 °C, 16.0 h): 75%

SMILES: COC(=O)Nc1ccc2c(c1)NC(=O)COCC[C@H](NC(=O)OCc1ccccc1)c1cc-2ccn1
ring closure, yield after HPLC (from COC(=O)Nc1ccc(-c2ccnc([C@H](CCOCC(=O)O)NC(=O)OCc3ccccc3)c2)c(N)c1, amide bond, 12-membered ring, BOP/DMAP/DIEA, DCM/DMF, 2.8 mM, 25.0 °C, 6.0 h): 27%

SMILES: COC(=O)Nc1ccc2c(c1)NC(=O)[C@H](C)/C=C/C[C@H](NC(=O)OC(C)(C)C)c1cc-2ccn1
ring closure, isolated yield ([1]; from C=CC[C@H](NC(=O)OC(C)(C)C)c1cc(-c2ccc(NC(=O)OC)cc2NC(=O)C(C)C=C)ccn1, rcm bond, Grubbs II (0.1 eq)/pTsOH, DCM, 4.0 mM, 40.0 °C, 6.0 h): 25%
ring closure, isolated yield ([1]; from C=CC[C@H](NC(=O)OC(C)(C)C)c1cc(-c2ccc(NC(=O)OC)cc2NC(=O)[C@H](C)C=C)ccn1, rcm bond, Grubbs II (0.2 eq)/pTsOH, DCM, 11.8 mM, 4.0 h): 71%

SMILES: COC(=O)Nc1ccc2c(c1)NC(=O)[C@H](C)C=CC[C@H](NC(=O)OC(C)(C)C)c1nc-2cn1COCC[Si](C)(C)C
ring closure, isolated yield ([1]; from C=CC[C@H](NC(=O)OC(C)(C)C)c1nc(-c2ccc(NC(=O)OC)cc2NC(=O)[C@H](C)C=C)cn1COCC[Si](C)(C)C, rcm bond, Grubbs II (0.4 eq)/pTsOH, DCM, 10.0 mM, 40.0 °C, 21.5 h): 41%

SMILES: COC(=O)Nc1ccc2c(c1)NC(=O)[C@H](C)CCC[C@H](NC(=O)OC(C)(C)C)c1nc-2cn1COCC[Si](C)(C)C
ring closure, yield after HPLC (from COC(=O)Nc1ccc(-c2cn(COCC[Si](C)(C)C)c([C@H](CCCC(C)C(=O)O)NC(=O)OC(C)(C)C)n2)c(N)c1, amide bond, 12-membered ring, BOP/DMAP/DIEA, DCM/DMF, 3.4 mM, 50.0 °C, 96.0 h): 22%

SMILES: C[C@@H]1/C=C/C[C@H](NC(=O)OC(C)(C)C)c2cn(COCC[Si](C)(C)C)c(n2)-c2ccc([N+](=O)[O-])cc2NC1=O
ring closure, isolated yield ([1]; from C=CC[C@H](NC(=O)OC(C)(C)C)c1cn(COCC[Si](C)(C)C)c(-c2ccc([N+](=O)[O-])cc2NC(=O)[C@H](C)C=C)n1, rcm bond, Grubbs II (0.287 mmol), DCM, 16.0 h): 56%

SMILES: CCC1/C=C/C[C@H](NC(=O)OC(C)(C)C)c2cc(ccn2)-c2ccc(NC(=O)OC)cc2NC1=O (single isomer, unassigned; diastereomer a)
ring closure, isolated yield [1, 2]: 10%

SMILES: CCC1/C=C/C[C@H](NC(=O)OC(C)(C)C)c2cc(ccn2)-c2ccc(NC(=O)OC)cc2NC1=O (single isomer, unassigned; diastereomer b)
ring closure, isolated yield [1, 2]: 16%

Ki (human Factor XIa): 5080 nM
SMILES: Cc1c(C(=O)N[C@H]2CCC[C@H](C)C(=O)Nc3cc(-c4ccn[nH]4)ccc3-c3ccnc2c3)nnn1-c1cccc(Cl)c1F [Example 165, 1-(3-Chloro-2-fluorophenyl)-5-methyl-N-[(10S,14S)-10-methyl-9-oxo-5-(1H-pyrazol-5-yl)-8,16-diazatricyclo[13.3.1.0^2,7]nonadeca-1(19),2(7),3,5,15,17-hexaen-14-yl]-1H-1,2,3-triazole-4-carboxamide, TFA salt]

Ki (human Factor XIa): 6.65 nM
SMILES: Cc1c(C(=O)N[C@H]2CCC[C@@H](C)C(=O)Nc3cc(C(N)=O)ccc3-c3ccnc2c3)cnn1-c1cccc(Cl)c1F [Example 190, (10R,14S)-14-C-1-(3-Chloro-2-fluorophenyl)-5-methyl-1H-pyrazole-4-10-methyl-9-oxo-8,16-diazatricyclo[13.3.1.0^2,7]nonadeca-1(19),2(7),3,5,15,17-hexaene-5,14-diamido, TFA salt]

Ki (human Factor XIa): 2980 nM
SMILES: Cc1c(C(=O)N[C@H]2CCCCC(=O)Nc3cc(C(=O)N(C)C)ccc3-c3ccnc2c3)cnn1-c1cccc(Cl)c1F [Example 193, (14S)-14-C-1-(3-Chloro-2-fluorophenyl)-5-methyl-1H-pyrazole-4-5-N,5-N-dimethyl-9-oxo-8,16-diazatricyclo[13.3.1.0^2,7]nonadeca-1(19),2(7),3,5,15,17-hexaene-5,14-diamido, TFA salt]

Ki (human Factor XIa): 153 nM
SMILES: COC(=O)Nc1ccc2c(c1)NC(=O)[C@H](C)CCC[C@H](NC(=O)c1nnn(-c3c(F)ccc(Cl)c3F)c1C)c1nc-2c[nH]1 [Example 207]

Ki (human Factor XIa): < 5 nM
SMILES: COC(=O)Nc1ccc2c(c1)NC(=O)[C@H](C)CCC[C@H](NC(=O)c1cnn(-c3cccc(Cl)c3F)c1C)c1cc(OC)nc-2c1 [Example 227]

Ki (human Factor XIa): 4290 nM
SMILES: COC(=O)Nc1ccc2c(c1)NC(=O)[C@@H](C)CCC[C@@H](NC(=O)c1cnn(-c3cccc(Cl)c3F)c1C)c1cc-2ncc1F [Example 232]

Ki (human Factor XIa): < 5 nM
SMILES: COC(=O)Nc1ccc2c(c1)NC(=O)CCCC[C@H](NC(=O)c1cnn(-c3cccc(Cl)c3F)c1C)c1cc-2ccn1 [Example 234]

Ki (human Factor XIa): < 5 nM
SMILES: COC(=O)Nc1ccc2c(c1)NC(=O)[C@H](C)CCC[C@H](NC(=O)c1cnn(-c3cccc(Cl)c3F)c1C)c1cc-2cnn1 [Example 246]

Ki (human Factor XIa): < 5 nM
SMILES: COCCOC(=O)Nc1ccc2c(c1)NC(=O)[C@H](C)CCC[C@H](NC(=O)c1ncn(-c3cccc(Cl)c3F)c1C)c1cc-2ccn1 [Example 251]

Ki (human Factor XIa): < 5 nM
SMILES: COC(=O)Nc1ccc2c(c1)NC(=O)[C@H](C)CCC[C@H](NC(=O)c1ncn(-c3cccc(Cl)c3F)c1C)c1cc-2cc(=O)[nH]1 [Example 256]

Ki (human Factor XIa): < 5 nM
SMILES: COC(=O)Nc1ccc2c(c1)NC(=O)[C@H](C)CCC[C@H](NC(=O)c1ncn(-c3cccc(Cl)c3F)c1C)c1cc-2cc(OC)n1 [Example 257]

Ki (human Factor XIa): 13.6 nM
SMILES: COC(=O)Nc1ccc2c(c1)NC(=O)[C@H](C)CCC[C@H](NC(=O)c1cnn(-c3cccc(Cl)c3F)c1C)c1c[nH]c-2n1 [Example 262]

Ki (human Factor XIa): 33.2 nM
SMILES: COC(=O)Nc1ccc2c(c1)NC(=O)[C@H](C)CCC[C@H](NC(=O)c1ncn(-c3cccc(Cl)c3F)c1C)c1c[nH]c-2n1 [Example 263]

Source: patent US10208068B2, “Macrocycles as factor XIa inhibitors” (BRISTOL-MYERS SQUIBB COMPANY, priority 2011, dated 2019)
